Each structure is given as a SMILES string. Converted amounts (≈) assume the structure as drawn. Where only a bound is given, the exact number is not on record here.

The conditions of the data set: buffer; pH 7.4; 200.0 µM.
For `Cc1ccc(NC(CC(=O)c2ccccc2)C(=O)O)cc1Cl` (configuration not stated), the solubility (kinetic) stood at 10.2 µg/mL (≈ 32.1 µM).

Consider `CCOC(=O)N1CCN(C(=O)Cc2ccccc2OC)CC1`, for which the solubility (kinetic) is more than 46 µg/mL.

`O=C(c1cnsn1)N1CCC(CO)(Cc2cccc(F)c2)CC1` showed a kinetic solubility of 44.4 µg/mL (≈ 132 µM).

On to `COCCNC(=O)c1cc2cc3ccc(OC)cc3nc2o1`, for which the solubility (kinetic) was determined as 42.1 µg/mL (≈ 140 µM).

Compound `CCOC(=O)C1CCN(CC(=O)N2CCc3ccccc32)CC1` gave a kinetic solubility of more than 47.5 µg/mL.

For the compound `CC(=O)Nc1ccc(NC(=O)COC(=O)Cn2cnc3ccccc32)cc1`, the kinetic solubility is more than 55 µg/mL.

As for `Cc1cccc2c1NC1(CCCC1)CC2C.Cl` (configuration not stated), the solubility (kinetic) was less than 0.5 µg/mL.

As to `CN(CC(=O)Nc1ccc(Cl)cc1)C(=O)CCc1ccccc1`, the kinetic solubility was 5.2 µg/mL (≈ 15.7 µM).

Compound `COc1cccc(CNC(=O)Cc2ccc(-c3ccccc3)cc2)c1` gave a kinetic solubility of 5.1 µg/mL (≈ 15.4 µM).

In turn, `CC(C)c1ccc(S(=O)(=O)NC2CCCC2)cc1` registered a kinetic solubility of more than 40.1 µg/mL.

For `CCCCN(Cc1cc2cccc(C)c2[nH]c1=O)S(C)(=O)=O`, the kinetic solubility turned out to be 41 µg/mL (≈ 127 µM).

In turn, `O=C(c1ccc(Br)cc1)N(c1ccccn1)C1CCCCC1` yielded a solubility (kinetic) of 16.5 µg/mL (≈ 45.9 µM). This solubility kinetic is about 2.5-fold lower than that of the compound before.

`Cc1csc(NC(=S)NC(=O)c2ccccc2)n1` showed a solubility (kinetic) of 1 µg/mL (≈ 3.61 µM).

As to `O=C(COC(=O)Cc1ccc([N+](=O)[O-])cc1)NCc1ccc2c(c1)OCO2`, the solubility (kinetic) was 55.5 µg/mL (≈ 149 µM).

`Cc1ccccc1NC(=O)c1cccc(NC(=O)c2ccccc2C(=O)O)c1` registered a kinetic solubility of 55.8 µg/mL (≈ 149 µM).

In the case of `Cc1cc(=O)[nH]c2ccc(S(=O)(=O)Nc3ccccc3)cc12`, the kinetic solubility was 3.4 µg/mL (≈ 10.8 µM).

On to `CC1(C)CC2CC(C)(CN2C(=O)COC(=O)c2cccnc2Cl)C1` (configuration not stated), for which the solubility (kinetic) is more than 52.6 µg/mL.

With `CCOC(=O)C1CCN(C(=O)c2ccc3c(c2)OCCO3)CC1`, the solubility (kinetic) stood at 44.4 µg/mL (≈ 139 µM).

Compound `CC1C(=O)C(C)(C)C(=O)OC1c1ccc([N+](=O)[O-])cc1` (configuration not stated) had a kinetic solubility of 12.4 µg/mL (≈ 44.7 µM).

In the case of `O=c1c2ccccc2ncn1-c1cccc(Br)c1`, the solubility (kinetic) stood at 5.5 µg/mL (≈ 18.3 µM). This solubility kinetic lies about 2.3-fold lower than the previous one.

In the case of `O=C(CS(=O)(=O)c1ccccc1Cl)N1CCOCC1`, the solubility (kinetic) is 43.8 µg/mL (≈ 144 µM). Against the preceding compound, the solubility kinetic is about 8-fold higher.

The compound `CCC(C)NC(=O)COCc1cc(-c2ccc3c(c2)OCO3)on1` (configuration not stated) gave a solubility (kinetic) of more than 49.9 µg/mL.

`Cl.Oc1ccc(CCNc2c3ccccc3nc3ccccc23)cc1O` had a solubility (kinetic) of 44.7 µg/mL.

`CC(C)c1ccc(NC(=O)CCCN2C(=O)NC(C)(C)C2=O)cc1`: the kinetic solubility came out at 37.8 µg/mL (≈ 114 µM).

The compound `Cc1ccc2nc(C)c3c(c2c1)N(c1ccc(F)cc1)CC3` displayed a solubility (kinetic) of 40.6 µg/mL (≈ 139 µM). This solubility kinetic and that of the compound before are within 1.5-fold of each other.

The compound `COc1ccc(CCC(=O)OCC(=O)c2ccc[nH]2)cc1OC` came in with a kinetic solubility of more than 47.6 µg/mL.

In turn, `Cc1cc(C)c2c(CC(=O)NN(C)C)coc2c1` yielded a kinetic solubility of more than 36.9 µg/mL.

As for `Cc1cc(O)c(C(=O)Cc2csc(C)n2)c(O)c1`, the solubility (kinetic) stood at 4.1 µg/mL (≈ 15.6 µM).

Compound `CCN(CC)C(=O)CSc1ncnc2sc(C)c(C)c12` returned a solubility (kinetic) of 43.4 µg/mL (≈ 140 µM).

For the compound `COc1ccccc1NC(=O)COC(=O)C1CC(=O)N(c2ccc3c(c2)OCCO3)C1` (configuration not stated), the kinetic solubility is 37.8 µg/mL (≈ 88.6 µM). This solubility kinetic and that of the compound before are within 1.5-fold of each other.

For `O=C(COC(=O)c1ccc[nH]c1=O)Nc1ccc2c(c1)OC(F)(F)O2`, the solubility (kinetic) was more than 52.8 µg/mL.

With `COc1ccc(OCC(N)=O)cc1`, the kinetic solubility is more than 27.2 µg/mL.

For `CCc1ccc(NC(=O)COC(=O)CC2CCCC2)cc1`, the solubility (kinetic) turned out to be 26 µg/mL (≈ 89.8 µM).

Compound `CCOc1ccc(CCNC(=O)c2cnccn2)cc1OCC` came in with a kinetic solubility of more than 47.3 µg/mL.

In turn, `O=C(NOCc1ccccc1)c1ccc(Cl)cc1Cl` registered a solubility (kinetic) of 36.4 µg/mL (≈ 123 µM).

For the compound `Cc1ccccc1NS(=O)(=O)c1cccc2nsnc12`, the kinetic solubility is more than 45.8 µg/mL.

`CC1CCc2c(sc3ncnc(SCC(=O)N(C)C4CCS(=O)(=O)C4)c23)C1` (configuration not stated): the solubility (kinetic) was 3.3 µg/mL (≈ 7.75 µM).

`N#Cc1cnn2cc(CCN3CCOCC3)c(-c3ccc(F)cc3)nc12` yielded a solubility (kinetic) of more than 52.7 µg/mL.

In turn, `Cc1sc2ncnc(NC(C)C(=O)O)c2c1C` (configuration not stated) displayed a kinetic solubility of more than 37.7 µg/mL.

Turning to `CCOC(=O)/C(C#N)=C/Nc1ccsc1C(=O)OC`, the kinetic solubility was less than 0.3 µg/mL.

For the compound `CC12CCC(C(=O)NC3CCCCC3)([C@H](Br)C1=O)C2(C)C` (some centres not stated), the kinetic solubility was more than 53.4 µg/mL.

Turning to `CC1=C(C(=O)OC(C)C)C(c2ccc(C)o2)C(C(=O)OC(C)C)=C(C)N1`, the kinetic solubility was determined as 11.8 µg/mL (≈ 32.6 µM).

As for `COc1cc(OC)c(NC(=O)C2CCCO2)cc1Cl` (configuration not stated), the kinetic solubility was more than 42.9 µg/mL.

For `Cc1cccc(N2C(=O)/C(=C/c3ccccn3)SC2=S)c1`, the solubility (kinetic) is less than 0.3 µg/mL.

In turn, `COc1cccc(NC(=O)c2cc3ccccc3cc2OC)c1` had a kinetic solubility of 2.8 µg/mL (≈ 9.11 µM).

As for `COc1ccc(Nc2ncnc3ccc(C)cc23)cc1`, the kinetic solubility is more than 39.8 µg/mL.

On to `Cc1nnc(SCC(=O)N(C)C2CCCCC2)s1`, for which the kinetic solubility is more than 42.8 µg/mL.

As for `COc1cccc(-c2noc(CCC(=O)NCC3CCCO3)n2)c1` (configuration not stated), the kinetic solubility is more than 49.7 µg/mL.

`O=C(COC(=O)/C=C/c1ccc(S(=O)(=O)N2CCOCC2)cc1)Nc1ccccc1F` returned a solubility (kinetic) of 12.5 µg/mL (≈ 27.9 µM).

Take `Cc1ccc(/C(O)=C2\C(=O)C(=O)N(C)C2c2ccc([N+](=O)[O-])cc2)cc1` (configuration not stated): the kinetic solubility is more than 52.9 µg/mL.

Take `C=CCNc1nc(N)c([N+](=O)[O-])c(Nc2ccccc2OC)n1`: the kinetic solubility was determined as 0.4 µg/mL (≈ 1.26 µM).

`O=C(CNC(=O)C1CCCCC1)OCC(=O)c1ccc(Br)cc1` came in with a kinetic solubility of 27.6 µg/mL (≈ 72.2 µM). This solubility kinetic is about 69-fold higher than that of the compound before.

By solubility (kinetic) is commonly meant the concentration staying in solution when a stock, usually in DMSO, is diluted into the medium.

Source of the values: PubChem BioAssay AID1996.
